Values after ≈ are worked out from the molar mass of the structure shown. Like-named read-outs stand apart in the source and are kept apart here.
Key:
[1] = cited from earlier work
[2] = Solubility of crystal forms; format: physicochemical; settings: thermodynamic from solid
Description: In various embodiments, the compositions of the present inventions use new crystalline forms of enantiomeric amisulpride, Form A and Form A′. […] It is to be understood that upon dissolution of the compound it is no longer of a crystalline form, thus one of ordinary skill in the art will understand that the specific rotation in Table 7 refers to that of the non-crystalline compound.

[3] = Dynamic vapor sorption (DVS) water sorption isotherm; format: physicochemical; settings: for maximum mass change in water sorption isotherms: 25° C., scanned over 0 to 95% relative humidity; for Change Mass: FIG. 8D
Description: In various embodiments, the hygroscopicity of crystal forms of racemic amisulpride, enantiomeric amisulpride, and enantiomeric amisulpride solvates are characterized by dynamic vapor sorption (DVS). DVS is a gravimetric technique that measures how much of a solvent is absorbed by a sample by varying the vapor concentration surrounding the sample (e.g., relative humidity) and measuring the change in mass. In the present application, DVS is used to generate water sorption isotherms, which represent the equilibrium amount of vapor sorbed as a function of steady state relative vapor pressure at a constant temperature.

[4] = Plasma (S)-amisulpride levels during the PET study; format: in vivo; settings: human, single oral solution 25-200 mg
Method: Plasma samples were collected throughout the course of the PET scan session and were analyzed for (S)-amisulpride levels.

rat = assay: Forced Swim test; format: in vivo
Method: The Forced Swim test (FST) is an indicator of the antidepressant-like activity of a test compound. The rat will swim before “giving up” and becoming immobile. A compound with antidepressant-like activity will decrease the time the rat is immobile.
The animals (n=90) were divided into five groups. […] In the training session, each animal was gently placed into the plastic cylinder containing 5.8 L of water set at 25±1° C. Fifteen minutes after the beginning of the training session, the animal was removed from the water. The dosing solutions were administered 15 minutes after finishing of the training.
The swim test was performed for 5 minutes in the same manner as the training session. In the swim test, the behavior of each animal was horizontally recorded using a video camera. After the swim test, animals were immediately sacrificed by inhalation of carbon dioxide.
The swim movies were handled in a blind manner to ensure that the person who measured the immobility time had no information on the treatment. An animal was judged to be immobile whenever it remained floating in the water without moving its body or forepaws except for the slight movement to maintain its posture. The total time for which the animal remained immobile was defined as the immobility time. An observer blinded to the doses measured the immobility times. The immobility time of each animal was measured to one decimal place and rounded to a whole number. Immobility time was expressed in units of seconds. In each series the means of immobility time were calculated and rounded to a whole number using. The mean and standard error (SE) for each group were calculated using the data obtained from three experimental series and rounded to a whole number. All results are represented as the mean±SE.
The data of imipramine were analyzed using t-test with a two-sided significance level of 5% (p<0.05).

[5] = 0.05 M acetate buffer, aqueous buffer, solution pH 4.5, read-out: Solubility, 0.05 M Acetate Buffer
[6] = acetone/MtBE 1:4, organic solvent or mixture, read-out: Solubility, Acetone/MtBE 1:4
[7] = acetone/MtBE 1:9, organic solvent or mixture, read-out: Solubility, Acetone/MtBE 1:9
[8] = ethyl acetate, organic solvent or mixture, read-out: Solubility, Ethyl Acetate
[9] = simulated gastric fluid (no enzyme), pH 1.1, simulated gastric fluid, pH adjusted to 1.1 (Form A), 1.2 (Form A′), read-out: Solubility, Simulated Gastric Fluid (no enzyme)
[10] = simulated intestinal fluid (no enzyme), pH 6.7, fassgf or other biorelevant, pH adjusted to 6.7 (Form A), 6.9 (Form A′), read-out: Solubility, Simulated Intestinal Fluid (no enzyme)
[11] = water, pH 10.2, water, read-out: Solubility, Water

In the case of `CCN1CCCC1CNC(=O)c1cc(S(=O)(=O)CC)c(N)cc1OC` (racemic) [racemic amisulpride, 4-amino-N-[(1-ethylpyrrolidin-2-yl)methyl]-5-ethylsulfonyl-2-methoxy-benzamide], the terminal plasma half-life ([1]; biphasic elimination, Coukell et al. 1996) is given as “approximately 12 hours”.

Molecule `CCN1CCC[C@@H]1CNC(=O)c1cc(S(=O)(=O)CC)c(N)cc1OC` [(R)-amisulpride Form A, R-4-Amino-N-[(1-ethyl-2-pyrrolidinyl)methyl]-5-(ethylsulfonyl)-2-methoxybenzamide] has a solubility [2, 5] greater than 100000 µg/mL, a solubility [2, 6] of 8000 µg/mL (≈ 21.7 mM) and a solubility [2, 7] of 2000 µg/mL (≈ 5.41 mM). The solubility [2, 8] was 3900 µg/mL (≈ 10.6 mM), the solubility [2, 9] was greater than 100000 µg/mL and the solubility [2, 10] was greater than 100000 µg/mL. It also gave a solubility [2, 11] of 2000 µg/mL (≈ 5.41 mM).

For `CCN1CCCC1CNC(=O)c1cc(S(=O)(=O)CC)c(N)cc1OC.O=C(O)C(O)C(O)C(=O)O` [(S)-amisulpride D-tartrate, reference compound], the “maximum mass change in water sorption isotherms” value [3] was 52±9%.

With `CCN1CCC[C@H]1CNC(=O)c1cc(S(=O)(=O)CC)c(N)cc1OC` [(S)-amisulpride Form A′, S-4-Amino-N-[(1-ethyl-2-pyrrolidinyl)methyl]-5-(ethylsulfonyl)-2-methoxybenzamide] the solubility [2, 5] was greater than 100000 µg/mL, the solubility [2, 6] was 8000 µg/mL (≈ 21.7 mM) and the solubility [2, 7] was 2000 µg/mL (≈ 5.41 mM). It also gave a solubility [2, 8] of 3900 µg/mL (≈ 10.6 mM), a solubility [2, 9] greater than 100000 µg/mL and a solubility [2, 10] greater than 100000 µg/mL. For the same molecule, the solubility [2, 11] was 2000 µg/mL (≈ 5.41 mM), the “maximum mass change in water sorption isotherms” value [3] was 0.35% and the “Change Mass” value ([3]; 19.077 mg, relative humidity 0 %, rising steps) was 0.00 wt %. For the same molecule, the “Change Mass” value ([3]; relative humidity 1 %, falling steps) was −0.01 wt %, the “Change Mass” value ([3]; relative humidity 10 %, falling steps) was 0.01 wt % and the “Change Mass” value ([3]; relative humidity 10 %, rising steps) was 0.03 wt %. The “Change Mass” value ([3]; relative humidity 20 %, falling steps) was 0.03 wt %, the “Change Mass” value ([3]; relative humidity 20 %, rising steps) was 0.05 wt % and the “Change Mass” value ([3]; relative humidity 30 %, falling steps) was 0.05 wt %. For the same molecule, the “Change Mass” value ([3]; relative humidity 30 %, rising steps) was 0.07 wt %, the “Change Mass” value ([3]; relative humidity 40 %, falling steps) was 0.07 wt % and the “Change Mass” value ([3]; relative humidity 40 %, rising steps) was 0.09 wt %. For the same molecule, the “Change Mass” value ([3]; relative humidity 50 %, falling steps) was 0.08 wt %, the “Change Mass” value ([3]; relative humidity 50 %, rising steps) was 0.11 wt % and the “Change Mass” value ([3]; relative humidity 60 %, falling steps) was 0.11 wt %. The “Change Mass” value ([3]; relative humidity 60 %, rising steps) was 0.13 wt %, the “Change Mass” value ([3]; relative humidity 70 %, falling steps) was 0.14 wt % and the “Change Mass” value ([3]; relative humidity 70 %, rising steps) was 0.16 wt %. For the same molecule, the “Change Mass” value ([3]; relative humidity 75 %, falling steps) was 0.16 wt %, the “Change Mass” value ([3]; relative humidity 75 %, rising steps) was 0.18 wt % and the “Change Mass” value ([3]; relative humidity 80 %, falling steps) was 0.17 wt %. For the same molecule, the “Change Mass” value ([3]; relative humidity 80 %, rising steps) was 0.19 wt %, the “Change Mass” value ([3]; relative humidity 90 %, falling steps) was 0.28 wt % and the “Change Mass” value ([3]; relative humidity 90 %, rising steps) was 0.25 wt %. The “Change Mass” value ([3]; relative humidity 95 %, first step at 95 %) was 0.34 wt % and the “Change Mass” value ([3]; relative humidity 95 %, second step at 95 %) was 0.35 wt %.

For `CCN1CCC[C@H]1CNC(=O)c1cc(S(=O)(=O)CC)c(N)cc1OC` [(S)-amisulpride, S-4-Amino-N-[(1-ethyl-2-pyrrolidinyl)methyl]-5-(ethylsulfonyl)-2-methoxybenzamide], the “time frame in which plasma concentrations peaked” value [4] was “approximately 3 hour”.

With `CN(C)CCCN1c2ccccc2CCc2ccccc21` [Imipramine, imipramine] the immobility time (rat; 10 mg/kg i.p. at 24, 5 and 1 h before swim test, mean ± SE, vehicle 168±12) was 105 ± 15 s and the “shortening of immobility time” value (rat; 10 mg/kg i.p., in all series, vs vehicle) was “more than 20%”.

In the case of `OCCOCCN1CCN(C2=Nc3ccccc3Sc3ccccc32)CC1` [quetiapine], the elimination half-life ([1]; literature (Delaney and Nemeroff 2001)) is listed as “about 7 hours”.
